Test results from publication PMC9714921 (PLOS Pathogens, 2022).
“And” between values parts separate entries of the source, which are not always exact repeats. Identical values can stand only once. Like-named read-outs stand apart in the source and are kept apart here.

What was measured:
[1] = tested on: TZC-ICL (T. callipaeda ICL in Asu-ACR-16); test: Voltage-clamp electrophysiology, A. suum/T. callipaeda ACR-16 chimera in oocytes; assay type: cell-based; conditions: S2C Fig
Experimental: (§1) B. malayi acr-16 and accessory proteins ric-3, unc-50, unc-74 and molo-1 were cloned from adult female B. malayi cDNA received as a gift from Dr. T. Geary using the primers described in S1 Table. B. malayi eat-18 was prepared from two overlapping oligonucleotide primers. Other subunits were synthesized from their predicted genome sequence (Gene Universal, USA) (S2 Table). […] All sequences were cloned into the pTD2 oocyte expression vector. Asu-ACR-16 and Tzc-ACR-16 chimeras were constructed using appropriate restriction enzymes, reciprocal exchange through ligation and confirmed by sequencing (McLab, USA).
(§2) cRNA for oocyte injection was prepared with the mMESSAGE mMACHINE T7 kit following manufacturers protocol (Ambion, USA). Concentration was determined using a Nanodrop spectrophotometer. Desired subunit combinations with associated accessory proteins were mixed and diluted with nuclease-free water to a final concentration of 250 ng/uL for each construct.
(§3) Adult female X. laevis oocyte extraction was performed in accordance with the McGill University Animal Use Protocol 2015–7758 following standard protocol. Briefly, frog ovary lobes were placed in a Ca^2+-free OR2 solution (82 mM NaCl, 2 mM KCl, 1 mM MgCl2, 5 mM HEPES buffer, pH 7.3) and manually divided into clusters of <10 oocytes with thin tweezers followed by a 90-minute incubation in 10 mg/mL collagenase type II (Sigma-Aldrich, USA). Oocytes were washed in Ca^2+-free OR2 and placed ND96 solution (NaCl 96 mM, KCl 2 mM, CaCl2 1.8 mM, MgCl2 1 mM and HEPES 5 mM, pH 7.3) supplemented with sodium pyruvate 2.5 mM [86] and incubated at 18°C until cRNA injection. Oocytes were injected with 50 nL (12.5 ng of each injected gene) of the desired cRNA subunit and accessory protein combination mix with the NanojectII (Drummond Scientific, USA). Following injection, oocytes were incubated in ND96 buffer at 18°C until electrophysiology. All electrophysiology was conducted two days post-injection, except for the expression analysis assay in which oocytes were measured every day after injection for three consecutive days.
(§4) All drugs were dissolved in recording solution (NaCl 100 mM, KCl 2.5 mM, CaCl2 1 mM, HEPES 5 mM, pH 7.3) to a stock concentration of 10 mM and diluted to their final recording concentrations. Oxantel and bephenium were first dissolved in DMSO to ensure a final recording concentration contained less than 0.1% DMSO. For agonist profiling, all drugs were diluted to a concentration of 100 μM.
(§5) Oocytes were placed individually in an RC3Z chamber (Harvard Apparatus, USA) submerged in recording solution (NaCl 100 mM, KCl 2.5 mM, CaCl2 1 mM, HEPES 5 mM, pH 7.3). The RC3Z chamber was connected to a perfusion system containing recording solution and ligand solutions. Pulled glass capillaries (World Precision Instruments, USA) were filled with 3M KCl and the tips clipped and checked for appropriate resistance (between 0.5 and 5 MΩ). A 3M KCl agar bridge grounded the oocyte bath chamber. Measurements were made using an Axon Axoclamp 900A amplifier with Digidata1550M. […] Ligand solutions were applied to the oocytes with an approximate flow rate of 1.2 m/s and current responses measured. Oocytes were exposed to the ligand solution until a distinct current peak was observed followed by a wash with the recording solution until current returned to baseline for a minimum of 10 seconds until the next ligand exposure. For BAPTA-AM exposed oocytes, oocytes were incubated in 100 μM BAPTA-AM for four hours prior to electrophysiology recording. Data was analyzed using Clampex 9.2 (Axon Instruments, USA) and statistical analysis and graphs produced in Prism (GraphPad version 9.1). T-tests were used to compare responses with error bars representing standard error. For concentration-response curves, individual oocyte current response to the different ligand concentrations were normalized to the response obtained with 300 μM.

[2] = tested on: ASU-ICL (A. suum ICL in Tzc-ACR-16); test: as above; assay type: cell-based; conditions: S2C Fig
Experimental: as §1, §2, §3, §4, §5

[3] = tested on: ASU-TM (A. suum TM regions in Tzc-ACR-16); test: as above; assay type: cell-based; conditions: S2C Fig
Experimental: as §1, §2, §3, §4, §5

[4] = tested on: TZC-TM (Tzc-TM region in A. suum ACR-16); test: as above; assay type: cell-based; conditions: S2C Fig
Experimental: as §1, §2, §3, §4, §5

[5] = tested on: ASU-ECD (A. suum ECD in Tzc-ACR-16); test: as above; assay type: cell-based; conditions: S2C Fig
Experimental: as §1, §2, §3, §4, §5

[6] = tested on: TZC-ECD (T. callipaeda ECD in Asu-ACR-16); test: as above; assay type: cell-based; conditions: S2C Fig
Experimental: as §1, §2, §3, §4, §5

[7] = target: Asu-ACR-16-bmaICL chimera (Ascaris suum; Brugia malayi, UniProt A0A4E9FSR7+F1KYJ9); assay type: cell-based, A. suum (B. malayi ICL); conditions: listed as acetylcholine
Experimental: as §1, §2, §3
All drugs were dissolved in recording solution (NaCl 100 mM, KCl 2.5 mM, CaCl2 1 mM, HEPES 5 mM, pH 7.3) to a stock concentration of 10 mM and diluted to their final recording concentrations. […]
Oocytes were placed individually in an RC3Z chamber (Harvard Apparatus, USA) submerged in recording solution (NaCl 100 mM, KCl 2.5 mM, CaCl2 1 mM, HEPES 5 mM, pH 7.3). […] Ligand solutions were applied to the oocytes with an approximate flow rate of 1.2 m/s and current responses measured. […] Data was analyzed using Clampex 9.2 (Axon Instruments, USA) and statistical analysis and graphs produced in Prism (GraphPad version 9.1). […]

[8] = target: Bma-ACR-16-asuICL chimera (Brugia malayi; Ascaris suum, UniProt A0A4E9FSR7+F1KYJ9); assay type: cell-based, B. malayi (A. suum ICL)
Experimental: as §1, §2, §3, §4, §5

CC(=O)OCC[N+](C)(C)C [ACh, acetylcholine]
response to ACh [1]: 1959 ± 78 nA | response to ACh [2]: 2237 ± 98 nA | response to ACh [3]: 24 ± 8 nA | response to ACh [4]: 2917 ± 105 nA | response to ACh [5]: 1819 ± 115 nA | response to ACh [6]: 42 ± 9 nA | current response to 100 μM acetylcholine ([7]; No accessory protein): 22 ± 4 (n=14) nA | current response to 100 μM acetylcholine ([7]; co-injected: Bma-ric-3 (reference condition)): 3021 ± 444 nA and 3021 ± 128 (n=12) nA | current response to 100 μM acetylcholine ([7]; co-injected: Bma-ric-3 + Cel-nra-2): 2181 ± 99 (n=14) nA | current response to 100 μM acetylcholine ([8]; No accessory protein): 0 ± 0 (n=15) nA | current response to 100 μM acetylcholine ([8]; co-injected: Bma-ric-3 (reference condition), listed as acetylcholine): 59 ±43 nA and 59 ± 12 (n=14) nA | current response to 100 μM acetylcholine ([8]; co-injected: Bma-ric-3 + Bma-emc-6 + Cel-nra-2 + Cel-nra-4, listed as acetylcholine): 1 ± 2 nA and 1 ± 1 (n=11) nA | current response to 100 μM acetylcholine ([8]; co-injected: Bma-ric-3 + Cel-emc-6): 37 ± 12 (n=15) ns nA | current response to 100 μM acetylcholine ([8]; co-injected: Bma-ric-3 + Cel-nra-2 + Cel-nra-4, listed as acetylcholine): 47 ± 18 (n=14) ns nA | current response to 100 μM acetylcholine ([8]; co-injected: Bma-ric-3 + Cel-nra-2, listed as acetylcholine): 256 ± 89 (n=11) nA
